Laboratory results reported in patent US20260285868A1, “IMIDAZOTRIAZINE DERIVATIVES AS IL-17 MODULATORS” (UCB BIOPHARMA SRL, priority 2023, published 2026).

What follows are compounds tested against T1, IL-17A (Homo sapiens, UniProt Q16552) (assay: Inhibition of IL-17A induced IL-6 release from dermal fibroblast cell line (HDF cell line assay)). Conditions: HDF cells stimulated with IL-17A 50 pM + TNFα 25 pM; IL-6 measured by HTRF.
T1 sequence (Q16552 24-155): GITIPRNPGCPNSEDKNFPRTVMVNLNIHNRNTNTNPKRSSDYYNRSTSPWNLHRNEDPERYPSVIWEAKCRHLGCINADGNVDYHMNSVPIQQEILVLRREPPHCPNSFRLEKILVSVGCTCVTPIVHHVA
Assay type: cell-based
Description: Inhibition of IL-17A Induced IL-6 Release from Dermal Fibroblast Cell Line
The purpose of this assay is to test the neutralising ability to IL-17 proteins, in a human primary cell system. Stimulation of normal human dermal fibroblasts (HDF) with IL-17 alone produces only a very weak signal but in combination with certain other cytokines, such as TNFα, a synergistic effect can be seen in the production of inflammatory cytokines, i.e. IL-6.
HDFs were stimulated with IL-17A (50 pM) in combination with TNF-α (25 pM). The resultant IL-6 response was then measured using a homogenous time-resolved FRET kit from Cisbio. The kit utilises two monoclonal antibodies, one labelled with Eu-Cryptate (Donor) and the second with d2 or XL665 (Acceptor). The intensity of the signal is proportional to the concentration of IL-6 present in the sample (Ratio is calculated by 665/620×104).
The ability of a compound to inhibit IL-17 induced IL-6 release from human dermal fibroblasts is measured in this assay.
HDF cells (Sigma #106-05n) were cultured in complete media (DMEM+10% FCS+2 mM L-glutamine) and maintained in a tissue culture flask using standard techniques. Cells were harvested from the tissue culture flask on the morning of the assay using TrypLE (Invitrogen #12605036). The TrypLE was neutralised using complete medium (45 mL) and the cells were centrifuged at 300×g for 3 minutes. The cells were re-suspended in complete media (5 mL) counted and adjusted to a concentration of 3.125×10^4 cells/mL before being added to the 384 well assay plate (Corning #3701) at 40 μL per well. The cells were left for a minimum of three hours, at 37° C./5% CO2, to adhere to the plate.
Compounds were serially diluted in DMSO before receiving an aqueous dilution into a 384 well dilution plate (Greiner #781281), where 5 μL from the titration plate was transferred to 45 μL of complete media and mixed to give a solution containing 10% DMSO.
Mixtures of TNFα and IL-17 cytokine were prepared in complete media to final concentrations of TNFα 25 pM/IL-17A 50 pM, then 30 μL of the solution was added to a 384 well reagent plate (Greiner #781281).
10 μL from the aqueous dilution plate was transferred to the reagent plate containing 30 μL of the diluted cytokines, to give a 2.5% DMSO solution. The compounds were incubated with the cytokine mixtures for 5 h at 37° C. […]
From the Cisbio IL-6 FRET kit (Cisbio #62IL6PEB) europium cryptate and Alexa 665 were diluted in reconstitution buffer and mixed 1:1, as per kit insert. […] The mixture was incubated at room temperature for 3 h with gentle shaking (<400 rpm) before being read on a Synergy Neo 2 plate reader (Excitation: 330 nm; Emission: 615/645 nm).
[2H]C([2H])([2H])O[C@H]1CCN(C(=O)[C@@H]2CCC(F)(F)CO2)[C@@H](c2cnn3cc([C@@H](NC(=O)c4ccnn4C)C4CCC(F)(F)CC4)nc3n2)C1 (single isomer, unassigned) [Example 1, N—[(S)-(4,4-Difluorocyclohexyl)(3-{(2R,4S or 2S,4R)-1-[(2S)-5,5-difluorotetrahydro-pyran-2-carbonyl]-4-(trideuteriomethoxy)piperidin-2-yl}imidazo[1,2-bl[1,2,4]triazin-6-yl)methyl]-2-methylpyrazole-3-carboxamide] gave an IC50 of 39.8 nM.
Work on [2H]C([2H])([2H])O[C@H]1CCN(C(=O)[C@@H]2CCC(F)(F)CO2)[C@H](c2cnn3cc(C(NC(=O)c4ccnn4C)C4CCC(F)(F)CC4)nc3n2)C1 (single isomer, unassigned) [Example 2, N—[(S)-(4,4-Difluorocyclohexyl)(3-{(2S,4S or 2R,4R)-1-[(2S)-5,5-difluorotetrahydro-pyran-2-carbonyl]-4-(trideuteriomethoxy)piperidin-2-yl}imidazo[1,2-bl[1,2,4]triazin-6-yl)methyl]-2-methylpyrazole-3-carboxamide] yielded an IC50 of 3.98 nM.
CO[C@H]1CCN(C(=O)[C@@H]2CCC(F)(F)CO2)[C@@H](c2cnn3cc([C@@H](NC(=O)c4ccnn4C)C4CCC(F)(F)CC4)nc3n2)C1 (single isomer, unassigned) [Example 3, N—[(S)-(4,4-Difluorocyclohexyl)(3-{(2R,4S or 2S,4R)-1-[(2S)-5,5-difluorotetrahydro-pyran-2-carbonyl]-4-methoxypiperidin-2-yl}imidazo[1,2-b][1,2,4]triazin-6-yl)methyl]-2-methylpyrazole-3-carboxamide] gave an IC50 of 39.8 nM.
CO[C@H]1CCN(C(=O)[C@@H]2CCC(F)(F)CO2)[C@H](c2cnn3cc(C(NC(=O)c4ccnn4C)C4CCC(F)(F)CC4)nc3n2)C1 (single isomer, unassigned) [Example 4, N—[(S)-(4,4-Difluorocyclohexyl)(3-{(2S,4S or 2R,4R)-1-[(2S)-5,5-difluorotetrahydro-pyran-2-carbonyl]-4-methoxypiperidin-2-yl}imidazo[1,2-bl[1,2,4]triazin-6-yl)methyl]-2-methylpyrazole-3-carboxamide] was tested, and the IC50 was 3.16 nM.
